Measurements reported in the supplement of paper PMC8149375.

Key:
Settings in all cases: treatment: drug + dasatinib (fixed dose, not stated); 5 days
769-P [1] = test: GI50 of drug in presence of dasatinib; higher = less potent
Description: (§1)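 Primary HTS combination arm: 8 RCC cell lines treated with 8 doses (up to 10 uM) of each library drug plus a fixed dose of dasatinib (dose not stated) for 5 days; viability read by CellTiter-Glo and normalised to DMSO. GI50 was fitted with XLfit, AUC is the area under the dose-response curve, and minimum viability is the lowest fraction of DMSO viability across doses.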

786-O [2] = test: as above
Description: as §1

A498 [3] = test: as above
Description: as §1

ACHN [4] = test: as above
Description: as §1

CAKI-1 [5] = test: as above
Description: as §1

SN12C [6] = test: as above
Description: as §1

UO-31 [7] = test: as above
Description: as §1

769-P [8] = test: minimum viability across doses, drug + dasatinib, relative to DMSO (fraction); higher = less growth inhibition
Description: as §1

786-O [9] = test: as above
Description: as §1

A498 [10] = test: as above
Description: as §1

ACHN [11] = test: as above
Description: as §1

CAKI-1 [12] = test: as above
Description: as §1

SN12C [13] = test: as above
Description: as §1

TK-10 [14] = test: as above
Description: as §1

UO-31 [15] = test: as above
Description: as §1

769-P [16] = test: AUC of dose-response viability curve, drug + dasatinib, normalised to DMSO (arbitrary (AUC of normalised viability)); higher = less growth inhibition
Description: as §1

786-O [17] = test: as above
Description: as §1

A498 [18] = test: as above
Description: as §1

ACHN [19] = test: as above
Description: as §1

CAKI-1 [20] = test: as above
Description: as §1

SN12C [21] = test: as above
Description: as §1

TK-10 [22] = test: as above
Description: as §1

UO-31 [23] = test: as above
Description: as §1

TK-10 [24] = test: GI50 of drug in presence of dasatinib; higher = less potent
Description: as §1

SMILES | GI50 of drug (769-P [1]) [nM] | GI50 of drug (786-O [2]) [nM] | GI50 of drug (A498 [3]) [nM] | GI50 of drug (ACHN [4]) [nM] | GI50 of drug (CAKI-1 [5]) [nM] | GI50 of drug (SN12C [6]) [nM] | GI50 of drug (UO-31 [7]) [nM] | minimum viability across doses (769-P [8]) | minimum viability across doses (786-O [9]) | minimum viability across doses (A498 [10]) | minimum viability across doses (ACHN [11]) | minimum viability across doses (CAKI-1 [12]) | minimum viability across doses (SN12C [13]) | minimum viability across doses (TK-10 [14]) | minimum viability across doses (UO-31 [15]) | AUC of dose-response viability curve (769-P [16]) | AUC of dose-response viability curve (786-O [17]) | AUC of dose-response viability curve (A498 [18]) | AUC of dose-response viability curve (ACHN [19]) | AUC of dose-response viability curve (CAKI-1 [20]) | AUC of dose-response viability curve (SN12C [21]) | AUC of dose-response viability curve (TK-10 [22]) | AUC of dose-response viability curve (UO-31 [23]) | GI50 of drug (TK-10 [24]) [nM]
CCC(=O)N1CCN(c2ccc(-n3c(=O)ccc4cnc5ccc(-c6cnc7ccccc7c6)cc5c43)cc2C(F)(F)F)CC1 [Torin 1] + Cc1nc(Nc2ncc(C(=O)Nc3c(C)cccc3Cl)s2)cc(N2CCN(CCO)CC2)n1 [dasatinib] | 21.8 | 17.4 | 73.9 | 4.88 | 27.7 | 26.6 | 77 | 0.0737 | 0.0106 | 0.025 | 0.0484 | 0.0196 | 0.0936 | 0.0693 | 0.00689 | 1.06 | 0.988 | 1.53 | 0.722 | 0.983 | 1.16 | 1.13 | 1.5 | –
CCOc1cc2ncc(C#N)c(Nc3ccc(OCc4ccccn4)c(Cl)c3)c2cc1NC(=O)/C=C/CN(C)C [Neratinib (HKI-272)] + Cc1nc(Nc2ncc(C(=O)Nc3c(C)cccc3Cl)s2)cc(N2CCN(CCO)CC2)n1 [dasatinib] | 102 | 611 | 6990 | 4.66 | 114 | 215 | – | 0.0611 | 0.298 | 0.51 | 0.0762 | 0.0888 | 0.0625 | 0.228 | 0.0167 | 1.59 | 1.88 | 3.02 | 0.82 | 1.44 | 1.74 | 1.57 | 2.08 | 74.2
COc1cc(Nc2ncc3c(n2)-c2ccc(Cl)cc2C(c2c(F)cccc2OC)=NC3)ccc1C(=O)O [MLN8237 (Alisertib)] + Cc1nc(Nc2ncc(C(=O)Nc3c(C)cccc3Cl)s2)cc(N2CCN(CCO)CC2)n1 [dasatinib] | 95.7 | 60.2 | – | 25 | 74.9 | 331 | 5320 | 0.231 | 0.145 | 0.353 | 0.16 | 0.0592 | 0.353 | 0.392 | 0.374 | 1.61 | 1.44 | 2.41 | 1.37 | 1.41 | 1.89 | 2.39 | 3.06 | 2740
COc1cc(Nc2c(C#N)cnc3cc(OCCCN4CCN(C)CC4)c(OC)cc23)c(Cl)cc1Cl [Bosutinib (SKI-606)] + Cc1nc(Nc2ncc(C(=O)Nc3c(C)cccc3Cl)s2)cc(N2CCN(CCO)CC2)n1 [dasatinib] | 1070 | 2190 | 3350 | 56.8 | 501 | 1330 | – | 0.105 | 0.0253 | 0.294 | 0.103 | 0.0492 | 0.199 | 0.0934 | 0.0097 | 2.03 | 2.37 | 2.84 | 1.45 | 1.85 | 2.24 | 2.26 | 2.22 | 1020
O=C(NC[C@H](O)CO)c1ccncc1Nc1ccc(I)cc1F + Cc1nc(Nc2ncc(C(=O)Nc3c(C)cccc3Cl)s2)cc(N2CCN(CCO)CC2)n1 [dasatinib] | 455 | 89.8 | – | 10.5 | 139 | 307 | 563 | 0.212 | 0.394 | 0.31 | 0.216 | 0.0863 | 0.227 | 0.203 | 0.0714 | 1.81 | 1.87 | 2.28 | 1.28 | 1.52 | 1.9 | 1.9 | 2.33 | 296
CS(=O)(=O)O.O=C(Nc1cccc(Cl)c1)Nc1ncc(CCNc2ncnc3ccsc23)s1 [SNS-314] + Cc1nc(Nc2ncc(C(=O)Nc3c(C)cccc3Cl)s2)cc(N2CCN(CCO)CC2)n1 [dasatinib] | 155 | 48.1 | – | 61.8 | 41.5 | 634 | 6020 | 0.217 | 0.123 | 0.442 | 0.144 | 0.107 | 0.259 | 0.362 | 0.372 | 1.74 | 1.54 | 2.61 | 1.48 | 1.38 | 1.97 | 2.41 | 3.06 | 3780
CC(=O)Nc1cccc(-n2c(=O)n(C3CC3)c(=O)c3c(Nc4ccc(I)cc4F)n(C)c(=O)c(C)c32)c1 + Cc1nc(Nc2ncc(C(=O)Nc3c(C)cccc3Cl)s2)cc(N2CCN(CCO)CC2)n1 [dasatinib] | 217 | 21.7 | – | 8.4 | 54.2 | 86.2 | 159 | 0.196 | 0.321 | 0.306 | 0.216 | 0.0991 | 0.243 | 0.235 | 0.0585 | 1.68 | 1.48 | 1.96 | 1.2 | 1.29 | 1.58 | 1.58 | 1.88 | 78.7
